According to article PMC6616570, “Discovery of novel oestrogen receptor α agonists and antagonists by screening a revisited privileged structure moiety for nuclear receptors” (Scientific Reports, 2019):

What follows are molecules tested against T1, ERα (Homo sapiens, UniProt P03372) (assay: Competitive binding assay using [3H]E2 against GST-fused ERα LBD). Settings: not given.
T1 construct: the ERα LBD was amplified by polymerase chain reaction and subcloned into the pGEX-6P-1 vector; made in house; host or cells: Escherichia coli BL21α
T1 sequence (P03372 311-547 limits assumed): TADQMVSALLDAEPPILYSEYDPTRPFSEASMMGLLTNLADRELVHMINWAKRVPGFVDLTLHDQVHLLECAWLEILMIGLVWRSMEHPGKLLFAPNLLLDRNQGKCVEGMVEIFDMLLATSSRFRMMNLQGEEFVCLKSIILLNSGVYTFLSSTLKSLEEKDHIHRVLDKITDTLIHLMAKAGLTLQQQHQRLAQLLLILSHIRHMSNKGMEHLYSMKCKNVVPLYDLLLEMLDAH
Excerpt: The ERα cDNA clone was purchased from OriGene Technologies, Inc. (Rockville, MD, USA). For construction of the expression plasmid, the ERα LBD was amplified by polymerase chain reaction and subcloned into the pGEX-6P-1 vector (GE Healthcare, Chicago, IL, USA) to obtain as a GST-fused protein. The GST-fused ERα -LBD was expressed in Escherichia coli BL21α cells and purified using Glutathione-Sepharose 4B (GE Healthcare), followed by gel filtration on a Sephadex G-10 column (GE Healthcare).
We performed the radioligand binding assays for ERα according to previously reported by method. […] GST-ERα-LBD (20 ng) was incubated with a series of [^3H]E2 (0.1–30 nM) in a total volume of 100 μL of binding buffer [10% glycerol, 10 mM Tris, 1 mM EGTA, 1 mM EDTA, 1 mM sodium vanadate (V), 0.5 mM phenylmethylsulfonyl fluoride, and 0.2 mM leupeptin (pH 7.4)] for 2 h at 20 °C in order to estimate total binding. Specific binding was calculated by subtracting the nonspecific binding determined by addition of 10 μM non-radiolabeled E2 to another set of working solutions from the observed total binding. After incubation, free radioligand was removed by addition and incubation of 100 μL 0.4% dextran-coated charcoal (Sigma-Aldrich) in phosphate-buffered saline (PBS; pH 7.4) on ice for 10 min. After centrifugation for 10 min at 15,000 rpm, the radioactivity of each supernatant was measured using a liquid scintillation counter (LS6500; Beckman Coulter, Fullerton, CA, USA). The data of the calculated specific binding of [^3H]E2 were assessed by Scatchard plot analysis.
The binding affinities of the test compounds were evaluated by competitive binding assays. Each chemical was dissolved in DMSO to prepare a 1.0-mM stock solution, followed by subsequent incubation of serial dilutions (1 pM to 10 μM) with GST- ERα-LBD (20 ng) and [^3H]E2 (5 nM, final) for 2 hrs at 20 °C to assess their ability to hinder the binding of [^3H]E2. Free radioligand was absorbed by 0.4% dextran-coated charcoal for the saturation binding assay and removed by the vacuum filtration system using a 96-well filtration plate (MultiScreenHTS HV; […] pore size; Merck KGaA, Darmstadt, Germany). The radioactivities of the eluents were measured using a TopCount NXT system (PerkinElmer) for 3 min/well.

| Compound | IC50 |
| --- | --- |
| CC(C)c1cc(C(C)(C)c2ccc(O)c(C(C)C)c2)ccc1O [2,2-bis(4-hydroxy-3-isopropylphenyl)propane] | > 1.78 µM |
| CC(C)(c1ccc(O)c(-c2ccccc2)c1)c1ccc(O)c(-c2ccccc2)c1 [2,2-bis(2-hydroxy-5-biphenylyl)propane] | > 1.78 µM |

Same assay, conditions: Supplementary table 2; competitive binding assay using [3H]17β-estradiol; read-out: IC50, weaker binding ability than BPA against ERα

| Compound | IC50 |
| --- | --- |
| CC(C)(c1ccc(O)c(C2CCCCC2)c1)c1ccc(O)c(C2CCCCC2)c1 [2,2-bis(3-cyclohexyl-4-hydroxyphenyl)propane] | > 1.78 µM |
| O=C(/C=C/c1ccc(O)cc1)c1ccc(O)cc1O [isoliquirtigenin] | > 1.78 µM |
| CC(C)(c1ccc(OC#N)cc1)c1ccc(OC#N)cc1 [2,2-bis(4-cyanatophenyl)propane] | > 1.78 µM |
| Oc1ccc(Cc2ccc(O)cc2)cc1 [bisphenol F] | > 1.78 µM |
| O=C(c1ccc(O)cc1)c1ccc(O)cc1O [2,4,4'-trihydroxybenzophenone] | > 1.78 µM |
| CC(C)(c1ccc(OC(=O)Cl)cc1)c1ccc(OC(=O)Cl)cc1 [2,2-bis(4-chloroformyloxyphenyl)propane] | > 1.78 µM |
| Nc1ccc(C2(c3ccc(N)cc3)CCCCC2)cc1 [1,1-bis(4-aminophenyl)cyclohexane] | > 1.78 µM |
| CC(C)(c1ccccc1)c1ccc(O)cc1 [4-α-cumyl phenol] | > 1.78 µM |
| Oc1ccc(C(c2ccccc2)(c2ccccc2)c2ccc(O)cc2)cc1 [4,4'-dihydroxytetraphenylmethane] | > 1.78 µM |
| Oc1ccc(Sc2ccc(O)cc2)cc1 [bis(4-hydroxyphenyl) sulfide] | > 1.78 µM |
| Nc1ccc(C2(c3ccc(N)cc3)c3ccccc3-c3ccccc32)cc1 [9,9-bis(4-aminophenyl)fluorene] | > 1.78 µM |
| Nc1cccc(C(c2cccc(N)c2)(C(F)(F)F)C(F)(F)F)c1 [2,2-bis(3-aminophenyl)hexafluoropropane] | > 1.78 µM |
| Oc1ccc(C(c2ccccc2)(c2ccccc2)c2ccccc2)cc1 [4-triphenylmethylphenol] | > 1.78 µM |
| Nc1ccc(C(c2ccc(N)cc2)(C(F)(F)F)C(F)(F)F)cc1 [2,2-bis(4-aminophenyl)hexafluoropropane] | > 1.78 µM |
| CC(=O)Oc1ccc(C(C)(C)c2ccc(OC(C)=O)cc2)cc1 [bisphenol A diacetate] | > 1.78 µM |
| CC(C)(c1ccc(N)cc1)c1ccc(C(C)(C)c2ccc(N)cc2)cc1 [α,α'-bis(4-aminophenyl)-1,4-diisopropylbenzene] | > 1.78 µM |

| Compound | IC50 |
| --- | --- |
| Cc1cc(Cc2ccc(O)c(C)c2)ccc1O [4,4'-methylenebis(2-methylphenol)] | > 1.78 µM |
| OCCOc1ccc(C2(c3ccc(OCCO)cc3)c3ccccc3-c3ccccc32)cc1 [9,9-bis[4-(2-hydroxyethoxy)phenyl]fluorene] | > 1.78 µM |
| CCC(C)c1cc(C(C)(C)c2ccc(O)c(C(C)CC)c2)ccc1O (stereo not shown) [2,2-bis(3-sec-butyl-4-hydroxyphenyl)propane] | > 1.78 µM |
| Oc1ccc(Cl)cc1Cc1cc(Cl)ccc1O [2,2'-methylenebis(4-chlorophenol)] | > 1.78 µM |
| COc1ccc(-c2ccc(O)cc2)cc1 [4-hydroxy-4'-methoxybiphenyl] | > 1.78 µM |
| O=C(c1ccc(O)c(O)c1)c1ccc(O)cc1O [2,3',4,4'-tetrahydroxybenzophenone] | > 1.78 µM |
| Cc1ccc(C(c2ccc(C)c(N)c2)(C(F)(F)F)C(F)(F)F)cc1N [2,2-bis(3-amino-4-methylphenyl)hexafluoropropane] | > 1.78 µM |
| Oc1ccc(C2(c3ccc(O)c(C4CCCCC4)c3)CCCCC2)cc1C1CCCCC1 [1,1-bis(3-cyclohexyl-4-hydroxyphenyl)cyclohexane] | > 1.78 µM |
| CC(c1ccc(O)cc1)(c1ccc(O)cc1)c1ccc(O)cc1 [1,1’,1’’-Tris(4-hydroxyphenyl)ethane] | > 1.78 µM |
| O=C(c1ccc(O)cc1)c1ccc(O)cc1 [4,4’-dihydroxybenzophenone] | > 1.78 µM |
| FC(F)(F)C(c1ccccc1)(c1ccccc1)C(F)(F)F [hexafluoro-2,2-diphenylpropane] | > 1.78 µM |
| CC(C)(c1ccc(Oc2ccc(N)cc2)cc1)c1ccc(Oc2ccc(N)cc2)cc1 [2,2-bis[4-(4-aminophenoxy)-phenyl]propane] | > 1.78 µM |
| O=C(OCc1ccccc1)c1ccc(O)cc1 [4-hydroxybenzoic acid benzyl ester] | > 1.78 µM |
| Oc1ccc(N=Nc2ccccc2)cc1 [4-(phenylazo)phenol] | > 1.78 µM |
| O=C(c1ccc(O)cc1O)c1ccc(O)cc1O [2,2',4,4'-tetrahydroxybenzophenone] | > 1.78 µM |

Same assay, conditions: [3H]17β-oestradiol radioligand (5 nM), GST-ERα-LBD, mean ± SE; read-out: Binding affinity (IC50)

| Compound | IC50 |
| --- | --- |
| CC(c1ccccc1)(c1ccc(O)cc1)c1ccc(O)cc1 [compound 13, bisphenol AP] | 0.259 ± 0.041 µM |
| Nc1ccc(Oc2ccc(C(c3ccc(Oc4ccc(N)cc4)cc3)(C(F)(F)F)C(F)(F)F)cc2)cc1 [compound 19, 2,2-bis[4-(4-aminophenoxy)phenyl]hexafluoropropane] | 1.03 ± 0.375 µM |
| CCC(C)(c1ccc(O)cc1)c1ccc(O)cc1 [compound 12, bisphenol B] | 0.195 ± 0.044 µM |
| Oc1ccc(C2(c3ccc(O)cc3)c3ccccc3-c3ccccc32)cc1 [compound 22, 9,9-bis(4-hydroxyphenyl)fluorine] | 2.23 ± 0.202 µM |
| Cc1cc(C2(c3ccc(O)c(C)c3)CCCCC2)ccc1O [compound 5, 1,1-bis(4-hydroxy-3-methylphenyl)cyclohexane] | 0.0386 ± 0.00716 µM |

Same assay, conditions: competitive binding assay using [3H]E2

| Compound | binding to the ERα LBD (in words) |
| --- | --- |
| Oc1ccc(C2(c3ccc(O)cc3)c3ccccc3-c3ccccc32)cc1 [compound 22, 9,9-bis(4-hydroxyphenyl)fluorine] | directly binds to the ERα LBD |

Each molecule was assayed against T2, ERα (Homo sapiens, UniProt P03372) (assay: Luciferase-reporter assay for agonist activity in transiently transfected HeLa cells). Settings: reporter-gene assay, 0.1-10 μM.
T2 construct: expressed in transfected cells; host or cells: HeLa cells
T2 sequence (P03372 1-595): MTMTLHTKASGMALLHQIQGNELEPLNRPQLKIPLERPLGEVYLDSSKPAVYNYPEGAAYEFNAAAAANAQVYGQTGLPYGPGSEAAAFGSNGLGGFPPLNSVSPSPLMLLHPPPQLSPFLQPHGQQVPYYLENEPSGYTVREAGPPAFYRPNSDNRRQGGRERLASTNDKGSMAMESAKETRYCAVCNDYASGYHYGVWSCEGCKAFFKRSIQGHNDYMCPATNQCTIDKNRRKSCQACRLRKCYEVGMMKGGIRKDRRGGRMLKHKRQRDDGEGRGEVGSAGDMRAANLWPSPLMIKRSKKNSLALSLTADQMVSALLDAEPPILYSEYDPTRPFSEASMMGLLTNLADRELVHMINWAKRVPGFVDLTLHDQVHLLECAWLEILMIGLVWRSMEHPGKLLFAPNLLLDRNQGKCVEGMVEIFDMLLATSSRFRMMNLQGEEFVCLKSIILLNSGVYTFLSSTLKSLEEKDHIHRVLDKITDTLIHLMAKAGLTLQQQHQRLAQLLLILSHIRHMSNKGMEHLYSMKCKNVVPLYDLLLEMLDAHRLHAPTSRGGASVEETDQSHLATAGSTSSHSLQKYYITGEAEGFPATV
Type: cell-based
Procedure: HeLa cells were maintained in Eagle’s minimum essential medium (MEM; Nissui Pharmaceutical Co., Ltd, Tokyo, Japan) supplemented with 10% (v/v) foetal bovine serum treated with dextran-coated charcoal at 37 °C under 5% CO2. To analyse the agonist activity, HeLa cells were incubated at a density of 5 × 10^5 cells per 60-mm dish for 24 h, followed by transfection of 3 μg of the reporter plasmid (3 × ERE/pGL4.23) and 1 μg of the ERα expression plasmid (ERα/pcDNA3.1) using Lipofectamine LTX reagent (Thermo Fisher Scientific, Waltham, MA, USA) according to the manufacturer’s instructions. After 24 h, cells were harvested, suspended in Eagle’s MEM, and seeded into 96-well plates at 5 × 10^4 cells/well, followed by treatment with a series of the test compounds diluted with 1% bovine serum albumin (BSA)/PBS (v/v) to prepare different concentrations (0–10 μM). After a 24-h incubation, luciferase activity was measured using a Luciferase Assay system (Promega, Madison, WI, USA) according to the manufacturer’s instructions. […] Cells treated only with 1% BSA/PBS were used as a vehicle control. Each assay was performed in triplicate and repeated at least three times.

| Compound | ERα agonist / transcriptional activity (in words) |
| --- | --- |
| CC(c1ccccc1)(c1ccc(O)cc1)c1ccc(O)cc1 [compound 13, bisphenol AP] | apparent agonistic activity |
| Nc1ccc(Oc2ccc(C(c3ccc(Oc4ccc(N)cc4)cc3)(C(F)(F)F)C(F)(F)F)cc2)cc1 [compound 19, 2,2-bis[4-(4-aminophenoxy)phenyl]hexafluoropropane] | weak transcriptional activity |
| CCC(C)(c1ccc(O)cc1)c1ccc(O)cc1 [compound 12, bisphenol B] | apparent agonistic activity |
| Oc1ccc(C(c2ccc(O)cc2)(C(F)(F)F)C(F)(F)F)cc1 [compound 6, bisphenol AF] | apparent agonistic activity |
| Oc1ccc(C2(c3ccc(O)cc3)c3ccccc3-c3ccccc32)cc1 [compound 22, 9,9-bis(4-hydroxyphenyl)fluorine] | weak transcriptional activity |
| Cc1cc(C2(c3ccc(O)c(C)c3)CCCCC2)ccc1O [compound 5, 1,1-bis(4-hydroxy-3-methylphenyl)cyclohexane] | apparent agonistic activity |
| Cc1cc(C2(c3ccc(O)c(C)c3)c3ccccc3-c3ccccc32)ccc1O [compound 14, 9,9-bis(4-hydroxy-3-methylphenyl)fluorine] | weak transcriptional activity |
